Values belong to the compound of their own block, whether it stands above or below them.
How the values were obtained:
recombinant mouse APA = biological target: T1, recombinant mouse APA (Mus musculus, UniProt P16406); assay: Measurement of APA activity in vitro (GluβNa hydrolysis, microplate); format: biochemical; conditions: 200 μM Glu-βNa, pH 7.4, 37° C., dithiothreitol, 4 mM CaCl2
T1 sequence (P16406 1-945): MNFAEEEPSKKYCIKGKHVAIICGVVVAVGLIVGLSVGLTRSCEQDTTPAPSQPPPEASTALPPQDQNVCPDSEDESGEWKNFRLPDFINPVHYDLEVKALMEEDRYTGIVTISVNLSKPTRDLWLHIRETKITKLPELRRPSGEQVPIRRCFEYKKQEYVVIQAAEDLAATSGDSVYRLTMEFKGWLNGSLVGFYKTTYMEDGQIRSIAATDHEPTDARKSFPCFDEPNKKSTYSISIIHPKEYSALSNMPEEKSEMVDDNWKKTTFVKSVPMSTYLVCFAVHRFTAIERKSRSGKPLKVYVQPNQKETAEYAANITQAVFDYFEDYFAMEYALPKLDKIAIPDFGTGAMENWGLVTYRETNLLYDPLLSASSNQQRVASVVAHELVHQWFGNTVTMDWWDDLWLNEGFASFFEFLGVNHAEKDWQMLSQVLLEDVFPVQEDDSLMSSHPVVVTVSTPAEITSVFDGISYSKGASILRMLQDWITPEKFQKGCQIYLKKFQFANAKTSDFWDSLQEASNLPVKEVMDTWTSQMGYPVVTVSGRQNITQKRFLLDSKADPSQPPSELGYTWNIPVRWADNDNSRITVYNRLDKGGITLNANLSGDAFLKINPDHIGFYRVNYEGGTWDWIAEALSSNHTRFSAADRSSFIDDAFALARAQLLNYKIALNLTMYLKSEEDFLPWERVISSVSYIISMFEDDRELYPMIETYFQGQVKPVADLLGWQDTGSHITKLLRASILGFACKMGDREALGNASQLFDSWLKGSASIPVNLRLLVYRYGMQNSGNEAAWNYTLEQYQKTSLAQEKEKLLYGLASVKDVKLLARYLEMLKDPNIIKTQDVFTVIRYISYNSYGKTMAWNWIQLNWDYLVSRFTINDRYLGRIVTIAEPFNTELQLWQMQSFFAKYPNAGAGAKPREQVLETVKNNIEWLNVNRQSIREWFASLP
Description: Measurement of APA activity in vitro is based on the protocol of Goldbarg adjusted to the scale of assaying on microplates (Pro Bind™ 3915) (Chauvel et al., 1994). In vitro, in the presence of calcium ions, APA hydrolyses a synthetic substrate α-L-glutamyl-β-naphthylamide (GluβNa) to glutamate and β-naphthylamine ([…]). A diazotation reaction in acidic medium makes it possible to reveal the β-naphthylamine by formation of a violet-colored complex: spectrophotometric measurement then makes it possible to know the amount of complex formed and, by reference to a standard curve produced with increasing concentrations of β-naphthylamine, to deduce the enzymatic activity of the sample.
The Glu-βNa substrate (Bachem) and the β-naphthylamine (Sigma) are dissolved in 50% DMSO (dimethyl sulphoxide) and 0.1 N HCl respectively, and conserved at −20° C. at a concentration of 10^−2 M. The diazotation reaction is carried out in the presence of sodium nitrite (87 mM), ammonium sulfamate (130 mM) and N-(1-naphthyl)-ethylenediamine dihydrochloride (23 mM in 95% ethanol). […]
The absorbance is then measured at 540 nm. […]

brain APA [1] = biological target: T2, brain APA (Mus musculus, UniProt P16406); assay: Measurement of brain APA activity ex vivo after i.v. administration in mice; conditions: 50 mg/kg i.v., 180 min after administration
T2 construct: from tissue; host or cells: mouse brain homogenate
T2 sequence (P16406 1-945): T1 sequence (P16406 1-945)
Experimental: (§1) Brain APA activity was determined as described above
In vivo, in mice (male, 18-20 g Charles River), Example 1 was administered i.v. (50 mg/kg, in a volume of 200 μL).
(§2) For each condition, four to sixteen mice and five to seven rats were used. Animals were sacrificed 180 min after the administration. The brains were immediately removed and homogenized by sonication in 10 vol of ice-cold 50 mM Tris-HCl buffer (pH 7.4). APA enzymatic activity was measured on brain homogenates. For this purpose, aliquots of the tissue homogenate (16 μL) were incubated for 30 min at 37° C. with 200 μM of Glu-βNa, 4 mM CaCl2, and 1 μM bestatin inhibitor, with or without 5 μM EC33, in a total volume of 100 μL of 50 mM Tris-HCl buffer (pH 7.4). Then the assay was pursued as described above.

[2] = tested on: hypertensive DOCA-salt rats; assay: Measurement of mean arterial blood pressure (MABP) and heart rate (HR) in conscious hypertensive DOCA-salt rats; format: in vivo; conditions: 8 mg/kg p.o.
Experimental: Male DOCA-salt rats were anesthetized with 3% isoflurane (Iso-vet®, Piramal, UK) for induction and 1.5-2% isoflurane for maintenance. A catheter was inserted into the right femoral artery to monitor MABP and HR. The catheter was tunneled subcutaneously to exit from the neck. Animals were maintained for 2 days in the animal room, under frequent observation, before MABP and HR recording. Baseline MABP and HR were recorded for at least 60 min before Example 2 was administered p.o. (8 mg/kg, in a volume of 400 μL). MABP and HR were recorded continuously for 6 h after treatment.

post-MI mice = assay: Left ventricular ejection fraction (LVEF) by echocardiography in mice post myocardial infarction; format: in vivo, CD1 mice; conditions: mice 4 weeks post MI, Mean±SEM
Experimental: Adult male CD1 mice were anesthetized with a mixture of 100 mg/kg ketamine (Imalgene 1000, Merial, Lyon, France) and 10 mg/kg xylazine (Rompun 2%, Bayer Healthcare, Loos, France), via intraperitoneal injection, intubated and ventilated at a rate of 200 insufflations/min, with a mean insufflate volume of 0.2 mL (Bioseb, France). The skin was disinfected and incised between the 2nd and 3rd intercostal space and the heart was exposed by left thoracotomy. Pericardium was opened and the left anterior descending (LAD) coronary artery infarction was permanently ligatured between the pulmonary artery trunk and the left atrial appendage, with 8/0 […] suture. (PVDF monofilament, 8-0, Peters Surgical, Bobigny, France). Ischemia was confirmed by visible left ventricle (LV) bleaching under the ligature. The thorax was then closed by three discontinuous points (PVDF monofil, 6/0, Peters Surgical, Bobigny, France) then mice received a subcutaneously injection of Meloxicam 1 mg/kg (Metacam, Boehringer Ingelheim, Germany) for prolonged analgesia. The pneumothorax was drained. The muscles and skin were then sutured (prolene thread 6-0, Peters Surgical, France) and the animals were rehydrated with saline at 37° C. Animals were extubated as soon as they could breathe spontaneously. The animal was placed in a cage and monitored regularly over 48 hours. Mice received an injection of Meloxicam 1 mg/kg, 24 hours postsurgery and up to 72 hours. The same surgical procedure was performed without LAD coronary artery ligation in sham-operated mice.
Post-MI mice received chronic oral treatment firibastat (RB150 used as a reference of brain APA inhibitor) at 150 mg/kg, ramipril (ACE inhibitor as standard treatment) at 1.25 mg/kg, or example 2 at 25 mg/kg with peanut butter vehicle. […] Cardiac function was evaluated regularly by trans-thoracic echocardiography at 4 weeks post MI to analyze the effects of different chronic oral treatment on heart contractility.

brain APA [3] = biological target: T3, brain APA (Rattus norvegicus, UniProt P50123); assay: Measurement of brain APA activity ex vivo after p.o. administration in DOCA-salt rats; conditions: 8 mg/kg p.o., 180 min after administration
T3 construct: from tissue; host or cells: DOCA-salt rat brain homogenate
T3 sequence (P50123 whole entry): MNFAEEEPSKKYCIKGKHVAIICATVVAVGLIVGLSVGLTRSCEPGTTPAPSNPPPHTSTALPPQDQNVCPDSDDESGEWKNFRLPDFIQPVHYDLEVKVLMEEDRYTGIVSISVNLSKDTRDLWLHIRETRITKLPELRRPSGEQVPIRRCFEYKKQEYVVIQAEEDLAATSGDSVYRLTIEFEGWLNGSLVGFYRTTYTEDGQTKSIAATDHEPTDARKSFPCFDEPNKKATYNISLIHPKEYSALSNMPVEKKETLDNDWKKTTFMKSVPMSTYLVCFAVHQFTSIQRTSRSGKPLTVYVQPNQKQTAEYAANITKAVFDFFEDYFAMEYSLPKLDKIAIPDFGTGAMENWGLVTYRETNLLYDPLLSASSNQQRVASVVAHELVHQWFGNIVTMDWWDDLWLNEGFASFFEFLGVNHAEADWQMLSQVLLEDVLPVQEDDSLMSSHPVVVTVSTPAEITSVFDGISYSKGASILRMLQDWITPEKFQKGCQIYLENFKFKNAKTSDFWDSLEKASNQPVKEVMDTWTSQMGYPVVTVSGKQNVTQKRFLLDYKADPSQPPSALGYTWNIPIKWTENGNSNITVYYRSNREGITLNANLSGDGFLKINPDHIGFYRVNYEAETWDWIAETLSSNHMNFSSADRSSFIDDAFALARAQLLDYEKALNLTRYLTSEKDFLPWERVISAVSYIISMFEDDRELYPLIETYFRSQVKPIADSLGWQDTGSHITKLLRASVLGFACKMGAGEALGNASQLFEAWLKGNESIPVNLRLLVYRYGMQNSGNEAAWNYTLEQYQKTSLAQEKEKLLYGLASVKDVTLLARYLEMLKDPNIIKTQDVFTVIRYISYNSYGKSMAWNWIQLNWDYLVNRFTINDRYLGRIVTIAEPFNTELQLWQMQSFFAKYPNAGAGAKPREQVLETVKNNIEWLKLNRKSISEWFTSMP
Experimental: as §1
In vivo, in DOCA-salt rats (male, 250 g Charles River), Example 2 was administered p.o. (8 mg/kg, in a volume of 400 μL).
as §2

In vitro inhibition of aminopeptidase A, Results (recombinant mouse APA): 0.81 ± 0.05 µM
decrease of brain APA activity (brain APA [1]; vs. control): 45%
SMILES: N[C@@H](CCS(=O)(=O)O)CSSC[C@H](N)C(=O)O [Example 1, (2R)-2-amino-3-{[(2S)-2-amino-4-sulfobutyl]disulfanyl}propanoic acid]
brain APA activity (brain APA [1]; brain homogenate): 39.6±5.2 nmol of Glu-βNa hydrolyzed per mg of protein per h

In vitro inhibition of aminopeptidase A, Results (recombinant mouse APA): 0.18 ± 0.02 µM
decrease of brain APA activity (brain APA [3]; vs. control): 29%
SMILES: N[C@@H](CSS[C@@H](CCc1ccccc1)[C@@H](N)CCS(=O)(=O)O)C(=O)O [Example 2, (2R)-2-amino-3-{[(3S,4S)-4-amino-1-phenyl-6-sulfohexan-3-yl]disulfanyl}propanoic acid]
effect on HR ([2]; 0 to 6 h after administration): no effect
decrease in MABP ([2]; 3 h after administration): −27±11 mmHg
decrease in MABP ([2]; 6 h after treatment): −44±8 mmHg
LVEF (post-MI mice; chronic oral 25 mg/kg once daily for 4 weeks): 50.6±0.9%
brain APA activity (brain APA [3]; brain homogenate): 46.1±2.4 nmol of Glu-βNa hydrolyzed per mg of protein per h

SMILES: N[C@@H](CCS(=O)(=O)O)CSSC[C@@H](N)CCS(=O)(=O)O [firibastat]
LVEF (post-MI mice; chronic oral 150 mg/kg once daily for 4 weeks): 50.9±1%

SMILES: CCOC(=O)[C@H](CCc1ccccc1)N[C@@H](C)C(=O)N1[C@H](C(=O)O)C[C@@H]2CCC[C@@H]21 [ramipril]
LVEF (post-MI mice; chronic oral 1.25 mg/kg once daily for 4 weeks): 48.4±1.2%

Reference: patent US11345658B2, “Compounds and compositions comprising the same for treating hypertension or heart failure” (QUANTUM GENOMICS, priority 2019, dated 2022)
